Test results reported in paper PMC6691788, “Design and synthesis of phthalazine-based compounds as potent anticancer agents with potential antiangiogenic activity via VEGFR-2 inhibition” (Journal of Enzyme Inhibition and Medicinal Chemistry, 2019).

Tests used:
Test in all cases: NCI 60 cell panel SRB screen
OVCAR-4 = format: cell-based; settings: Homo sapiens
KM12 = format: cell-based; settings: Homo sapiens
HCT-116 = format: cell-based; settings: Homo sapiens
HT29 = format: cell-based; settings: Homo sapiens, HT-29
CCRF-CEM = format: cell-based, human
OVCAR-5 = format: cell-based; settings: Homo sapiens
SNB-75 = format: cell-based; settings: Homo sapiens
MDA-MB-468 = format: cell-based; settings: Homo sapiens
Description: The human tumor cell lines of the cancer-screening panel were grown in RPMI 1640 medium containing 5% fetal bovine serum and […] L-glutamine. For a typical screening experiment, cells are inoculated into 96 well microtiter plates in 100 ml at plating densities ranging from 5000 to 40,000 cells/well depending on the doubling time of individual cell lines. After cell inoculation, the microtiter plates are incubated at 37 °C, 5% CO2, 95% air and 100%
relative humidity for 24 h prior to addition of experimental drugs. After 24 h, two plates of each cell line are fixed in situ with TCA, to represent a measurement of the cell population for each cell line at the time of drug addition (Tz). Experimental drugs are dissolved in dimethyl sulfoxide at 400-fold the desired final maximum test concentration and stored frozen prior to use. At the time of drug addition, an aliquot of frozen concentrate is thawed and diluted to twice the desired final maximum test concentration with complete medium containing […] Gentamicin. Additional four, 10-fold or ½log serial dilutions are made to provide a total of five drug concentrations plus control. Aliquots of […] of these different drug dilutions are added to the appropriate microtiter wells already containing 100 ml of medium, resulting in the required final drug concentrations. Following drug addition, the plates are incubated for an additional 48 h at 37 °C, 5% CO2, 95% air, and 100% relative humidity. For adherent cells, the assay is terminated by the addition of cold TCA. Cells are fixed in situ by the gentle addition of […] of cold 50% (w/v) TCA (final concentration,10% TCA) and incubated for 60 min at 4 °C. The supernatant is discarded, and the plates are washed five times with tap water and air dried. Sulforhodamine B (SRB) solution (100 ml) at 0.4% (w/v) in 1% acetic acid is added to each well, and plates are incubated for 10 min at room temperature. After staining, unbound dye is removed by washing five times with 1% acetic acid and the plates are air dried. Bound stain is subsequently dissolved with 10 μM trizma base, and the absorbance is read on an automated plate reader at a wavelength of 515 nm. For suspension cells, the methodology is the same except that the assay is terminated by fixing settled cells at the bottom of the wells by gently adding […] of 80% TCA (final concentration, 16% TCA).
Using the seven absorbance measurements [time zero, (Tz), control growth, (C), and test growth in the presence of drug at the five concentration levels (Ti)], the percentage growth is calculated at each of the drug concentrations levels. Percentage growth inhibition is calculated as: [(Ti -Tz)/(C - Tz)] x 100 for concentrations for which Ti>/ ¼ Tz and [(Ti -Tz) / Tz] x100 for concentrations for which Ti <Tz.
Three dose response parameters are calculated for each experimental agent. Growth inhibition of 50% (GI50) is calculated from [(Ti -Tz)/(C - Tz)] x 100 =50, which is the drug concentration resulting in a 50% reduction in the net protein increase (as measured by SRB staining) in control cells during the drug incubation. The drug concentration resulting in total growth inhibition (TGI) is calculated from Ti ¼ Tz. The LC50 (concentration of drug resulting in a 50% reduction in the measured protein at the end of the drug treatment as compared to that at the beginning) indicating a net loss of cells following treatment is calculated from [(Ti - Tz) / Tz] x100 = -50. Values are calculated for each of these three parameters if the level of activity is reached; however, if the effect is not reached or is exceeded, the value for that parameter is expressed as greater or less than the maximum or minimum concentration tested.

IGROV1 = format: cell-based; settings: Homo sapiens, IGROV-1
SK-MEL-5 = format: cell-based; settings: Homo sapiens
NCI-H460 = format: cell-based; settings: Homo sapiens
HS 578T = format: cell-based; settings: Homo sapiens
UACC-62 = format: cell-based
T-47D = format: cell-based; settings: Homo sapiens, T47D
LOX IMVI = format: cell-based; settings: Homo sapiens
TK-10 = format: cell-based, human
MDA-MB 231/ATCC = format: cell-based; settings: Homo sapiens
OVCAR-3 = format: cell-based; settings: Homo sapiens
[1] = read-out: percent cell growth promotion

O=C(Nc1ccccc1)Nc1ccc(Oc2nnc(Cl)c3ccccc23)cc1 [Compound 13a, 1–(4-(4-Chlorophthalazin-1-yloxy)phenyl)-3-phenylurea]
GI50 (OVCAR-4; OVCAR-4, 5 log dose): 1.73 µM
IC (TGI) (OVCAR-4; OVCAR-4, 5 log dose): 12.2 µM
CC50 (OVCAR-4; OVCAR-4, 5 log dose, 48 h, read-out: LC50 (the source's name)): > 25 µM
activity at 10 µM (OVCAR-4; OVCAR-4, single dose 10 μM, read-out: percent cell growth promotion): 0.22%
GI50 (KM12; KM12, 5 log dose): 5.51 µM
IC (TGI) (KM12; KM12, 5 log dose): > 25 µM
CC50 (KM12; KM12, 5 log dose, 48 h, read-out: LC50 (the source's name)): > 25 µM
activity at 10 µM (KM12; KM12, single dose 10 μM, read-out: percent cell growth promotion): 43.6%
GI50 (HCT-116; HCT-116, 5 log dose): 3.06 µM
IC (TGI) (HCT-116; HCT-116, 5 log dose): 9.77 µM
LC50 (lethal concentration 50%) (HCT-116; HCT-116, 5 log dose, 48 h): > 25 µM
activity at 10 µM (HCT-116; HCT-116, single dose 10 μM, read-out: percent cell growth promotion): 10.6%
GI50 (HT29; HT29, 5 log dose): 5.26 µM
IC (TGI) (HT29; HT29, 5 log dose): > 25 µM
CC50 (HT29; HT29, 5 log dose, 48 h, read-out: LC50 (the source's name)): > 25 µM
activity at 10 µM (HT29; HT29, single dose 10 μM, read-out: percent cell growth promotion): 23.8%
TGI (CCRF-CEM; 5 log dose): > 25 µM
GI50 (CCRF-CEM; Homo sapiens, 5 log dose): 4.44 µM
CC50 (CCRF-CEM; Homo sapiens, 5 log dose, 48 h, read-out: LC50 (the source's name)): > 25 µM
activity at 10 µM (CCRF-CEM; Homo sapiens, single dose 10 μM, read-out: percent cell growth promotion): 47.6%
GI50 (OVCAR-5; OVCAR-5, 5 log dose): 5.61 µM
IC (TGI) (OVCAR-5; OVCAR-5, 5 log dose): 15.3 µM
CC50 (OVCAR-5; OVCAR-5, 5 log dose, 48 h, read-out: LC50 (the source's name)): > 25 µM
activity at 10 µM (OVCAR-5; OVCAR-5, single dose 10 μM, read-out: percent cell growth promotion): 86.3%
GI50 (SNB-75; SNB-75, 5 log dose): 1.08 µM
IC (TGI) (SNB-75; SNB-75, 5 log dose): 5.9 µM
LC50 (concentration killing 50% of cells) (SNB-75; SNB-75, 5 log dose, 48 h): 21.3 µM
activity at 10 µM (SNB-75; SNB-75, single dose 10 μM, read-out: percent cell growth promotion): -42%
activity at 10 µM (MDA-MB-468; MDA-MB-468, MDA-MBA-468, single dose 10 μM, read-out: percent cell growth promotion): 0.47%
GI50 (MDA-MB-468; MDA-MB-468, 5 log dose): 7.58 µM
IC (TGI) (MDA-MB-468; MDA-MB-468, 5 log dose): 7.56 µM
CC50 (MDA-MB-468; MDA-MB-468, 5 log dose, 48 h, read-out: LC50 (the source's name)): > 25 µM
GI50 (IGROV1; IGROV1, 5 log dose): 3.32 µM
IC (TGI) (IGROV1; IGROV1, 5 log dose): 7.92 µM
CC50 (IGROV1; IGROV1, 5 log dose, 48 h, read-out: LC50 (the source's name)): 18.9 µM
activity at 10 µM (IGROV1; IGROV1, single dose 10 μM, read-out: percent cell growth promotion): 37.2%
GI50 (SK-MEL-5; SK-MEL-5): 4.56 µM
IC (TGI) (SK-MEL-5; SK-MEL-5, read-out: TGI): 18.6 µM
activity at 10 µM (SK-MEL-5; SK-MEL-5, read-out: percent cell growth promotion): 32.9%
CC50 (SK-MEL-5; SK-MEL-5, 5 log dose, 48 h, read-out: LC50 (the source's name)): > 25 µM
GI50 (NCI-H460; NCI-H460, 5 log dose): 2.67 µM
IC (TGI) (NCI-H460; NCI-H460, 5 log dose): 8.65 µM
LC50 (concentration causing 50% cell kill) (NCI-H460; NCI-H460, 5 log dose, 48 h): > 25 µM
activity at 10 µM (NCI-H460; NCI-H460, single dose 10 μM, read-out: percent cell growth promotion): 25.2%
GI50 (HS 578T; Hs-578T): 2.12 µM
IC (TGI) (HS 578T; Hs-578T, read-out: TGI): 10.4 µM
activity at 10 µM (HS 578T; Hs-578T, read-out: percent cell growth promotion): 1.19%
CC50 (HS 578T; HS 578T, 5 log dose, 48 h, read-out: LC50 (the source's name)): > 25 µM
GI50 (UACC-62; Homo sapiens, UACC-62): 6.84 µM
activity at 10 µM (UACC-62; Homo sapiens, UACC-62, read-out: percent cell growth promotion): 41.3%
CC50 (UACC-62; Homo sapiens, UACC-62, 5 log dose, 48 h, read-out: LC50 (the source's name)): > 25 µM
TGI (UACC-62; UACC-62, 5 log dose): > 25 µM
GI50 (T-47D): 0.63 µM
IC (TGI) (T-47D; read-out: TGI): 10.8 µM
activity at 10 µM (T-47D; [1]): -18%
CC50 (T-47D; T-47D, 5 log dose, 48 h, read-out: LC50 (the source's name)): > 25 µM
GI50 (LOX IMVI): 3.46 µM
CC50 (LOX IMVI; 5 log dose, 48 h, read-out: LC50 (the source's name)): 13.4 µM
IC (TGI) (LOX IMVI; read-out: TGI): 6.08 µM
activity at 10 µM (LOX IMVI; [1]): 32.1%
GI50 (TK-10; Homo sapiens, TK-10, 5 log dose): 6.08 µM
CC50 (TK-10; Homo sapiens, TK-10, 5 log dose, 48 h, read-out: LC50 (the source's name)): > 25 µM
activity at 10 µM (TK-10; Homo sapiens, TK-10, single dose 10 μM, read-out: percent cell growth promotion): 25.3%
TGI (TK-10; TK-10, 5 log dose): 14.9 µM
GI50 (MDA-MB 231/ATCC; MDA-MB-231): 4.76 µM
IC (TGI) (MDA-MB 231/ATCC; MDA-MB-231, read-out: TGI): 12.3 µM
activity at 10 µM (MDA-MB 231/ATCC; MDA-MB-231, read-out: percent cell growth promotion): 32.1%
CC50 (MDA-MB 231/ATCC; MDA-MB-231, MDA-MDA 231/ATCC, 5 log dose, 48 h, read-out: LC50 (the source's name)): > 25 µM
GI50 (OVCAR-3; OVCAR-3, 5 log dose): 2.64 µM
IC (TGI) (OVCAR-3; OVCAR-3, 5 log dose): 5.97 µM
CC50 (OVCAR-3; OVCAR-3, 5 log dose, 48 h, read-out: LC50 (the source's name)): 13.5 µM
activity at 10 µM (OVCAR-3; OVCAR-3, single dose 10 μM, read-out: percent cell growth promotion): 25.4%
